Source: ChEMBL document CHEMBL1201862, “PubChem BioAssay data set” (2004)
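Protocol summary: plate cells (96-well), add compound at 5 concentrations, incubate 48 h, interpolate endpoints linearly. GI50 marks 50% less growth.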 The source made the active and inactive calls. No stated cut-off is given here; in the data, active = GI50 up to about 1.1 µM and inactive = higher.

What was measured:
Assay in all cases: growth of human tumour cells (NCI), 48 h
SF-539 = test system: SF-539
MOLT-4 = test system: MOLT-4
Hs-578T = test system: Hs-578T
HL-60 = test system: HL-60
EKVX = test system: EKVX
PC-3 = test system: PC-3
NCI/ADR-RES = test system: NCI/ADR-RES
786-0 = test system: 786-0
OVCAR-5 = test system: OVCAR-5
NCI-H226 = test system: NCI-H226
UACC-257 = test system: UACC-257
IGROV-1 = test system: IGROV-1
SW-620 = test system: SW-620
MCF7 = test system: MCF7
T47D = test system: T47D
K562 = test system: K562
DU-145 = test system: DU-145
Malme-3M = test system: Malme-3M
OVCAR-4 = test system: OVCAR-4
UO-31 = test system: UO-31

Measured: GI50

NC1CSc2ccccc2NC1=O (stereo unspecified)
inactive: SF-539 > 100 µM | MOLT-4 > 100 µM | Hs-578T > 100 µM | HL-60 > 100 µM | EKVX > 100 µM | PC-3 > 100 µM | NCI/ADR-RES > 100 µM | 786-0 > 100 µM | OVCAR-5 > 100 µM | NCI-H226 > 100 µM | UACC-257 > 100 µM | IGROV-1 > 100 µM | SW-620 > 100 µM | MCF7 > 100 µM | T47D > 100 µM | K562 > 100 µM | DU-145 > 100 µM | Malme-3M > 100 µM | OVCAR-4 > 100 µM | UO-31 > 100 µM

Cc1ccc(C2SCC(=O)N2c2ccc(-n3c(-c4ccccc4)nc4ccccc4c3=O)cc2)cc1 (stereo unspecified)
inactive: SF-539 12.4 µM | MOLT-4 7.1 µM | Hs-578T 10 µM | HL-60 19.5 µM | PC-3 12.7 µM | NCI/ADR-RES 19.3 µM | 786-0 18.7 µM | OVCAR-5 42.4 µM | NCI-H226 18.5 µM | UACC-257 24.9 µM | IGROV-1 20.5 µM | SW-620 34.6 µM | MCF7 22.6 µM | T47D 15.5 µM | K562 7.26 µM | DU-145 31 µM | Malme-3M 22 µM | OVCAR-4 22.8 µM | UO-31 16.2 µM

CCN(CC)/C(Sc1ccccc1)=C(\C(Cl)=C(Cl)Cl)[N+](=O)[O-]
inactive: SF-539 17.3 µM | MOLT-4 6.93 µM | Hs-578T 20.7 µM | HL-60 1.81 µM | EKVX 15.6 µM | PC-3 17.2 µM | NCI/ADR-RES 24.9 µM | 786-0 18 µM | NCI-H226 18.5 µM | UACC-257 19.1 µM | IGROV-1 16 µM | SW-620 17.9 µM | MCF7 14.9 µM | T47D 17.8 µM | K562 10.8 µM | DU-145 16.9 µM | Malme-3M 18 µM | OVCAR-4 33.7 µM | UO-31 14.8 µM

CC(=O)OCC1OC(n2c3c(cc(C#N)c2=S)CCC3)C(OC(C)=O)C(OC(C)=O)C1OC(C)=O (stereo unspecified)
inactive: SF-539 > 100 µM | MOLT-4 33.9 µM | Hs-578T > 100 µM | HL-60 > 100 µM | PC-3 > 100 µM | NCI/ADR-RES > 100 µM | 786-0 > 100 µM | OVCAR-5 > 100 µM | NCI-H226 > 100 µM | UACC-257 > 100 µM | IGROV-1 > 100 µM | SW-620 > 100 µM | MCF7 > 100 µM | T47D > 100 µM | K562 > 100 µM | DU-145 > 100 µM | Malme-3M > 100 µM | OVCAR-4 > 100 µM | UO-31 > 100 µM

O=C1CCC(c2ccccc2)=NN1c1nc2ccccc2s1
inactive: SF-539 24.5 µM | MOLT-4 28 µM | Hs-578T 36 µM | HL-60 41.3 µM | EKVX 30.8 µM | PC-3 26.1 µM | NCI/ADR-RES 28.7 µM | 786-0 38.3 µM | OVCAR-5 > 63.5 µM | NCI-H226 90.8 µM | UACC-257 27.2 µM | IGROV-1 34.9 µM | SW-620 37.4 µM | MCF7 27 µM | T47D 11.9 µM | K562 29.8 µM | DU-145 22.9 µM | Malme-3M 32.2 µM | OVCAR-4 36.7 µM | UO-31 31.5 µM

COc1c(Cl)ccc(Cl)c1-c1nnc(-c2c(Cl)c(Cl)c(Cl)c(Cl)c2-c2nc3cc(C(=O)c4ccccc4)ccc3[nH]2)o1
inactive: SF-539 22.1 µM | MOLT-4 26.4 µM | Hs-578T 42.2 µM | HL-60 34.5 µM | EKVX 45.4 µM | PC-3 46 µM | NCI/ADR-RES 28.3 µM | 786-0 73.6 µM | OVCAR-5 > 100 µM | NCI-H226 26.5 µM | UACC-257 82.2 µM | IGROV-1 45.5 µM | SW-620 44.1 µM | MCF7 31.6 µM | T47D > 100 µM | K562 28.9 µM | DU-145 > 100 µM | Malme-3M 47.1 µM | OVCAR-4 43.5 µM | UO-31 75.7 µM

C=CCOC(=O)Cn1cnc2c(N)ncnc21
inactive: SF-539 > 100 µM | MOLT-4 > 100 µM | Hs-578T > 100 µM | HL-60 > 100 µM | EKVX > 100 µM | PC-3 > 100 µM | NCI/ADR-RES > 100 µM | 786-0 > 100 µM | NCI-H226 > 100 µM | UACC-257 > 100 µM | IGROV-1 > 100 µM | SW-620 > 100 µM | MCF7 > 100 µM | T47D > 100 µM | K562 > 100 µM | DU-145 > 100 µM | Malme-3M > 100 µM | OVCAR-4 > 100 µM | UO-31 > 100 µM
